Assay results as given in the Deep4Chem optical property database.

Test: solvent given as SMILES
[1] = in O=P(c1ccccc1)(c1ccccc1)c1ccccc1Oc1ccccc1P(=O)(c1ccccc1)c1ccccc1
[2] = in c1ccc2c(c1)c1ccccc1n2-c1ccc(-c2ccc(-n3c4ccccc4c4ccccc43)cc2)cc1

With CC(C)CCC[C@@H](C)[C@H]1CC[C@H]2[C@@H]3CC=C4C[C@@H](OC(=O)Oc5cc(/C=C/c6ccc(N(C)C)cc6)ccc5[N+](=O)[O-])CC[C@]4(C)[C@H]3CC[C@]12C the emission maximum (in C1CCCCC1) was 503 nm, the emission maximum (in C1COCCO1) was 573 nm and the emission maximum (in CCCCCCC) was 503 nm. It also gave an emission maximum (in Cc1ccccc1) of 554 nm.

Compound CC(C)(C)c1ccc2c(c1)[nH]c1c3[nH]c4cc(C(C)(C)C)ccc4c3c3nsnc3c21 has an emission maximum (in CN(C)C=O) of 507 nm, an emission maximum (in Cc1ccccc1) of 472 nm and an emission maximum (in ClCCl) of 502 nm.

With CC1=NN(c2cccc3ccccc23)[B-](F)(F)[n+]2ccccc21 the emission maximum (in ClCCl) was 538 nm.

CCn1c2ccccc2c2cc(-c3cc(-c4ccc5c(c4)c4ccccc4n5CC)nc(C#N)n3)ccc21 gave an emission maximum (in C1CCOC1) of 427 nm, an emission maximum (in CCOC(C)=O) of 422 nm and an emission maximum (in CN(C)C=O) of 455 nm. For the same compound, the emission maximum (in Cc1ccccc1) was 404 nm and the emission maximum (in ClCCl) was 435 nm.

CC1(C)c2ccccc2N(c2ccccc2)c2ccc(S(=O)(=O)c3ccc4c(c3)C(C)(C)c3ccccc3N4c3ccccc3)cc21 showed an emission maximum (in Cc1ccccc1) of 370.45 nm and an emission maximum [1] of 381 nm.

With CC(C)(C)c1ccc(C2=C(c3ccc(N(c4ccccc4)c4ccccc4)cc3)S(=O)(=O)c3c2sc(-c2ccc(N(c4ccccc4)c4ccccc4)cc2)c3-c2ccc(C(C)(C)C)cc2)cc1 the emission maximum (in C1CCOC1) was 591 nm.

CC(C)[Si](C#Cc1c2cc3ccccc3cc2c(C#C[Si](C(C)C)(C(C)C)C(C)C)c2cc3ccccc3cc12)(C(C)C)C(C)C showed an emission maximum (in ClCCl) of 649 nm.

In the case of c1ccc2c(c1)c1ccccc1n2-c1ccc(-c2cc3ccc(-c4ccc5cc(-c6ccc(-n7c8ccccc8c8ccccc87)cc6)oc5c4)cc3o2)cc1, the emission maximum (in Cc1ccccc1) is reported as 407 nm and the emission maximum [2] is reported as 419 nm.

For Cn1c2ccccc2c2cc(/C=C/C3=[O+][B-](F)(F)OC(/C=C/c4ccc5c(c4)c4ccccc4n5C)=C3c3ccccc3)ccc21, the emission maximum (in ClCCl) was 636 nm.

COc1ccc(N(c2ccc(OC)cc2)c2ccc(-c3ccc(C=C(C#N)C#N)s3)cc2)cc1 showed an emission maximum (in ClC(Cl)Cl) of 700 nm.

Work on CCn1c2ccccc2c2cc(/C=C/C(=O)c3ccc4c(c3)c3cc(C(=O)/C=C/c5ccc6c(c5)c5ccccc5n6CC)ccc3n4CC)ccc21 yielded an emission maximum (in C1CCCCC1) of 430 nm, an emission maximum (in C1CCOC1) of 474 nm and an emission maximum (in CC#N) of 491 nm. The emission maximum (in CC(C)=O) was 476 nm, the emission maximum (in CCO) was 521 nm and the emission maximum (in CCOCC) was 475 nm. For the same compound, the emission maximum (in CN(C)C=O) was 487 nm, the emission maximum (in CO) was 542 nm and the emission maximum (in CS(C)=O) was 493 nm. For the same compound, the emission maximum (in ClC(Cl)(Cl)Cl) was 454 nm and the emission maximum (in ClC(Cl)Cl) was 475 nm.

In the case of CC(C)n1c(=O)c2cc3ccc4cccc5ccc(c2c1=O)c3c45, the emission maximum (in ClC(Cl)Cl) is reported as 457 nm.

Work on CC(C)(C)c1ccc2c(c1)c1cc(C(C)(C)C)ccc1n2-c1ccc(C(=C(C#N)C#N)c2ccc(-n3c4ccc(C(C)(C)C)cc4c4cc(C(C)(C)C)ccc43)cc2)cc1 yielded an emission maximum (in Cc1ccccc1) of 566 nm.

Cc1ccc2nc3c(nc2c1)c(-c1ccccc1)nn3C gave an emission maximum (in C1CCCCC1) of 472 nm, an emission maximum (in C1CCOC1) of 500 nm and an emission maximum (in CC#N) of 516 nm.

With c1ccc2c(-c3cc4c(ccc5sccc54)s3)cccc2c1 the emission maximum (in ClCCl) was 405 nm.

Compound COc1ccc(/C=C/C(=O)c2ccccc2O)cc1OC has an emission maximum (in C1COCCO1) of 425 nm, an emission maximum (in CC#N) of 436 nm and an emission maximum (in CCCO) of 495 nm. For the same compound, the emission maximum (in CCO) was 500 nm, the emission maximum (in CN(C)C=O) was 473 nm and the emission maximum (in CO) was 510 nm. The emission maximum (in CS(C)=O) was 480 nm, the emission maximum (in ClC(Cl)Cl) was 462 nm and the emission maximum (in ClCCl) was 460 nm.

Work on CCCC1(CCC)c2cc(-c3ccc(OC)cc3)ccc2-c2ccc(-c3ccc4c(c3)C(CCC)(CCC)c3cc(-c5ccc(OC)cc5)ccc3-4)cc21 yielded an emission maximum (in C1CCCCC1) of 395 nm.

c1ccc(-c2nc3ccccc3nc2-c2ccccc2)cc1 showed an emission maximum (in C1CCOC1) of 401 nm, an emission maximum (in CC#N) of 399 nm and an emission maximum (in CCCCCC) of 396 nm. It also gave an emission maximum (in CN(C)C=O) of 403 nm, an emission maximum (in Cc1ccccc1) of 400 nm and an emission maximum (in ClC(Cl)Cl) of 398 nm.

With COc1ccc2c(c1)c1cc(OC)ccc1n2-c1ccc2c(c1)-c1cc(-n3c4ccc(OC)cc4c4cc(OC)ccc43)ccc1P2(=O)c1ccccc1 the emission maximum (in Cc1ccccc1) was 476 nm and the emission maximum [2] was 490 nm.

In the case of N#Cc1ccc(-n2c3ccccc3c3c2c2ccccc2n3-c2ccccc2)cc1, the emission maximum (in Cc1ccccc1) is reported as 460 nm.

Work on COc1ccc(-c2nc(-c3ccccc3)c(-c3ccccc3)[nH]2)cc1 yielded an emission maximum (in CO) of 395 nm.

Work on CCOC(=O)c1ccc(C2=Cc3ccccc3P2(=O)c2ccccc2)cc1 (configuration not stated) yielded an emission maximum (in ClCCl) of 425 nm.

With COc1ccc(-c2nc(-c3ccccc3O)c(-c3ccccc3O)n2-c2ccc(C)cc2)cc1 the emission maximum (in C1CCOC1) was 357 nm, the emission maximum (in CS(C)=O) was 389 nm and the emission maximum (in ClC(Cl)Cl) was 410 nm. The emission maximum (in ClCCl) was 347 nm.

In the case of CC1=CC(C)=[N+]2C1=C(c1ccc(I)cc1)c1c(C)cc(C)n1[B-]2(Oc1ccc([N+](=O)[O-])cc1)Oc1ccc([N+](=O)[O-])cc1, the emission maximum (in ClC(Cl)Cl) is reported as 516.5 nm.

With COc1ccc(-c2cc3ccc4cc(-c5ccc(OC)cc5)cc5ccc(c2)c3c45)cc1 the emission maximum (in C1CCCCC1) was 418.86 nm, the emission maximum (in C1CCOC1) was 416.47 nm and the emission maximum (in CC#N) was 414.88 nm. For the same compound, the emission maximum (in CCCCCC) was 417.26 nm, the emission maximum (in CCO) was 416.27 nm and the emission maximum (in CN(C)C=O) was 417.86 nm. The emission maximum (in CO) was 418.06 nm, the emission maximum (in ClC(Cl)Cl) was 417.61 nm and the emission maximum (in ClCCl) was 417.26 nm.

Work on Cc1ccc(N(c2ccc(C)cc2)c2ccc(-c3ccc(C=C(C#N)C#N)cc3)cc2)cc1 yielded an emission maximum (in ClC(Cl)Cl) of 676 nm.

COc1ccc(-c2nc(-c3ccc(C)cc3)c3ccccn23)cc1 showed an emission maximum (in ClC(Cl)Cl) of 521 nm.

In the case of CC1(C)C(/C=C/C2=C(Cl)C(=C/C=C3/N(Cc4ccc(F)cc4)c4ccccc4C3(C)C)/CCC2)=[N+](Cc2ccc(F)cc2)c2ccccc21, the emission maximum (in CO) is reported as 809 nm.

In the case of COC(=O)c1ccc2cc(C#N)c3ccc4ccccc4c3c2c1, the emission maximum (in ClC(Cl)Cl) is reported as 422 nm.

For O=c1c2cccc3cccc(c32)c2nc3c4ccccc4c4ccccc4c3n12, the emission maximum (in ClCCl) was 589 nm.

For CN(C)CCCN1c2ccccc2Sc2ccccc21, the emission maximum (in CC#N) was 444 nm, the emission maximum (in CO) was 444 nm and the emission maximum (in O) was 452 nm.

In the case of N#Cc1nn(-c2cc(F)cc(F)c2)nc1N1CCCC1, the emission maximum (in CC#N) is reported as 435 nm.

Work on CCn1c2ccccc2c2c(N(c3ccccc3)c3ccccc3)cccc21 yielded an emission maximum (in ClCCl) of 418 nm.

With COc1ccc(C2=Cc3c4ccccc4c4ccccc4[n+]3[B-](F)(F)O2)cc1 the emission maximum (in ClC(Cl)Cl) was 461 nm.

With O=C1c2cc3ccccc3cc2C2=Nc3cccc[n+]3[B-](F)(F)N12 the emission maximum (in ClCCl) was 414 nm.

For COc1ccc(-c2cc3c(s2)c(-c2ccccc2)cc(=O)n3C)cc1, the emission maximum (in CC#N) was 435 nm and the emission maximum (in ClCCl) was 437 nm.

In the case of CCCCCCOc1ccc(C#Cc2ccc(C#CC#Cc3ccc(C#Cc4ccc(OCCCCCC)c(OCCCCCC)c4)c4nsnc34)c3nsnc23)cc1OCCCCCC, the emission maximum (in CN(C)C=O) is reported as 638 nm, the emission maximum (in COc1ccccc1) is reported as 555 nm and the emission maximum (in Cc1ccccc1) is reported as 528 nm. For the same compound, the emission maximum (in ClC(Cl)Cl) was 563 nm, the emission maximum (in ClCCCl) was 591 nm and the emission maximum (in ClCCl) was 582 nm.

CCC1=C(C)C2=Cc3c4ccccc4c4n3[B-](c3ccc5cc6ccccc6cc5c3)(Oc3ccccc3-4)[N+]2=C1C (configuration not stated) gave an emission maximum (in CC#N) of 635 nm, an emission maximum (in CCCCCC) of 636 nm and an emission maximum (in Cc1ccccc1) of 641 nm. The emission maximum (in ClCCl) was 639 nm.

Compound C(#Cc1ccc(N(c2ccc(C#Cc3ccc(-c4cc(-c5ccccc5)nc(-c5ccccc5)c4)cc3)cc2)c2ccc(C#Cc3ccc(-c4cc(-c5ccccc5)nc(-c5ccccc5)c4)cc3)cc2)cc1)c1ccc(-c2cc(-c3ccccc3)nc(-c3ccccc3)c2)cc1 has an emission maximum (in C1CCOC1) of 455 nm and an emission maximum (in Cc1ccccc1) of 426 nm.

In the case of O=c1c2cc(F)c(N3CCOCC3)cc2oc2cc(N3CCOCC3)c(F)cc12, the emission maximum (in CCO) is reported as 448 nm.

Work on Cc1ccc(C2=C3C=CC(/C=C/c4ccccc4)=[N+]3[B-](F)(F)n3c(/C=C/c4ccccc4)ccc32)cc1 yielded an emission maximum (in C1CCCCC1) of 642 nm, an emission maximum (in C1CCOC1) of 645 nm and an emission maximum (in C1COCCO1) of 646 nm. It also gave an emission maximum (in CCOC(C)=O) of 641 nm, an emission maximum (in CO) of 639 nm and an emission maximum (in Cc1ccccc1) of 649 nm. The emission maximum (in ClC(Cl)Cl) was 647 nm.

COc1ccc(-n2c3ccccc3c3c(C)cc4ccccc4c32)cc1 showed an emission maximum (in ClCCl) of 367 nm.

In the case of c1ccc(-c2ccc(-c3nc(-n4c5ccccc5c5ccc6c7ccccc7n(-c7ccccc7)c6c54)nc(-n4c5ccccc5c5ccc6c7ccccc7n(-c7ccccc7)c6c54)n3)cc2)cc1, the emission maximum (in Cc1ccccc1) is reported as 495 nm and the emission maximum [1] is reported as 492 nm.

Work on CC[N+]1(CC)CN2C(C)=CC(C)=C(C(=O)O)C2=N1 yielded an emission maximum (in CN(C)C=O) of 449 nm and an emission maximum (in O) of 449 nm.

CCc1c(C)c2n(c1C)[B-](F)(F)[N+]1=C(c3ccc[nH]3)c3ccccc3C1=C2C showed an emission maximum (in C1CCOC1) of 627 nm, an emission maximum (in CC#N) of 623 nm and an emission maximum (in CCCCCC) of 622 nm. The emission maximum (in CO) was 622 nm, the emission maximum (in Cc1ccccc1) was 630 nm and the emission maximum (in ClCCl) was 629 nm.

For CCN(CC)c1ccc(/C=N/C2CCCCC2/N=C/c2ccc(N(CC)CC)cc2O)c(O)c1 (configuration not stated), the emission maximum (in CC#N) was 426 nm, the emission maximum (in CN(C)C=O) was 432 nm and the emission maximum (in ClCCl) was 461 nm.

In the case of CCOC(=O)c1c(-c2c(Cl)c3ccccc3oc2=O)nn(-c2cccc(Cl)c2)c1C(=O)OCC, the emission maximum (in ClCCl) is reported as 409 nm.

CCn1c2ccccc2c2cc(-c3cc(-c4ccc5c(c4)c4ccccc4n5CC)nc(N4CCCCC4)n3)ccc21 gave an emission maximum (in C1CCOC1) of 408 nm, an emission maximum (in CCOC(C)=O) of 409 nm and an emission maximum (in CN(C)C=O) of 417 nm. For the same compound, the emission maximum (in Cc1ccccc1) was 406 nm and the emission maximum (in ClCCl) was 414 nm.

In the case of CN(C)c1ccc(C2=Nc3scc(-c4ccc([N+](=O)[O-])cc4)[n+]3[B-](F)(F)O2)cc1, the emission maximum (in C1CCOC1) is reported as 454 nm, the emission maximum (in CC#N) is reported as 453 nm and the emission maximum (in Cc1ccccc1) is reported as 447 nm. For the same compound, the emission maximum (in ClCCl) was 454 nm.

In the case of O=C1c2cc(-n3c4ccccc4c4ccccc43)c(-n3c4ccccc4c4ccccc43)cc2C(=O)N1c1ccccc1, the emission maximum (in Cc1ccccc1) is reported as 510 nm.

With O=S1(=O)C(c2ccsc2)=C(c2ccsc2)c2ccccc21 the emission maximum (in C1CCOC1) was 433 nm.

O=C1c2cccc3c(-n4c5ccccc5c5ccccc54)ccc(c23)C(=O)N1C1CCCCC1 showed an emission maximum (in C1CCOC1) of 546 nm, an emission maximum (in CCCCCC) of 441 nm and an emission maximum (in ClC(Cl)Cl) of 495 nm. It also gave an emission maximum (in ClCCl) of 563 nm.
